Tests used:
Assay in all cases: relative viability (nuclei count vs DMSO), 5 days (fraction); higher = more cells survive
H3255 = system: H3255
Summary of the method: (§1)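 Relative viability is defined as nuclei in treated wells over nuclei in vehicle wells. Duplicate plates were run and medians reported. Lung cancer cell lines in 1536-well plates were dosed by pin tool one day after seeding, with one drug or with a fixed anchor-drug dose plus five library-drug doses (not always all listed) in √10 steps, and nuclei were counted after 5 days.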

COR-L23 = system: COR-L23
Summary of the method: as §1

SW 1573 = system: SW 1573
Summary of the method: as §1

NCI-H23 = system: NCI-H23
Summary of the method: as §1

PC-3 [JPC-3] = system: PC-3 [JPC-3]
Summary of the method: as §1

LCLC-103H = system: LCLC-103H
Summary of the method: as §1

NCI-H650 = system: NCI-H650
Summary of the method: as §1

NCI-H1651 = system: NCI-H1651
Summary of the method: as §1

NCI-H1563 = system: NCI-H1563
Summary of the method: as §1

LU99A = system: LU99A
Summary of the method: as §1

NCI-H2347 = system: NCI-H2347
Summary of the method: as §1

NCI-H1793 = system: NCI-H1793
Summary of the method: as §1

NCI-H1650 = system: NCI-H1650
Summary of the method: as §1

LCLC-97TM1 = system: LCLC-97TM1
Summary of the method: as §1

201T = system: 201T
Summary of the method: as §1

LK-2 = system: LK-2
Summary of the method: as §1

NCI-H838 = system: NCI-H838
Summary of the method: as §1

RERF-LC-KJ = system: RERF-LC-KJ
Summary of the method: as §1

PC-14 = system: PC-14
Summary of the method: as §1

NCI-H727 = system: NCI-H727
Summary of the method: as §1

A-427 = system: A-427
Summary of the method: as §1

NCI-H1944 = system: NCI-H1944
Summary of the method: as §1

NCI-H460 = system: NCI-H460
Summary of the method: as §1

C[C@@H]1CN(CC(=O)Nc2ccc3c(c2)Cc2cccc(-c4cc(=O)cc(N5CCOCC5)o4)c2S3)C[C@H](C)O1 + CS(=O)(=O)N1CCN(Cc2cc3nc(-c4cccc5[nH]ncc45)nc(N4CCOCC4)c3s2)CC1 [Pictilisib] (partner 1 µM)
relative viability (H3255; first compound 0.04 µM): 0.483
relative viability (H3255; first compound 0.1265 µM): 0.535
relative viability (H3255; first compound 0.4 µM): 0.452
relative viability (H3255; first compound 4 µM): 0.446
relative viability (COR-L23; first compound 0.04 µM): 0.854
relative viability (COR-L23; first compound 0.1265 µM): 0.785
relative viability (COR-L23; first compound 0.4 µM): 0.745
relative viability (COR-L23; first compound 4 µM): 0.755
relative viability (SW 1573; first compound 0.04 µM): 0.536
relative viability (SW 1573; first compound 0.1265 µM): 0.531
relative viability (SW 1573; first compound 0.4 µM): 0.489
relative viability (SW 1573; first compound 4 µM): 0.486
relative viability (NCI-H23; first compound 0.04 µM): 0.448
relative viability (NCI-H23; first compound 0.1265 µM): 0.499
relative viability (NCI-H23; first compound 0.4 µM): 0.483
relative viability (NCI-H23; first compound 4 µM): 0.543
relative viability (PC-3 [JPC-3]; first compound 0.04 µM): 0.714
relative viability (PC-3 [JPC-3]; first compound 0.1265 µM): 0.724
relative viability (PC-3 [JPC-3]; first compound 0.4 µM): 0.801
relative viability (PC-3 [JPC-3]; first compound 4 µM): 0.669
relative viability (LCLC-103H; first compound 0.04 µM): 0.547
relative viability (LCLC-103H; first compound 0.1265 µM): 0.557
relative viability (LCLC-103H; first compound 0.4 µM): 0.582
relative viability (LCLC-103H; first compound 4 µM): 0.668
relative viability (NCI-H650; first compound 0.04 µM): 0.828
relative viability (NCI-H650; first compound 0.1265 µM): 0.886
relative viability (NCI-H650; first compound 0.4 µM): 0.89
relative viability (NCI-H650; first compound 4 µM): 0.806
relative viability (NCI-H1651; first compound 0.04 µM): 0.59
relative viability (NCI-H1651; first compound 0.1265 µM): 0.491
relative viability (NCI-H1651; first compound 0.4 µM): 0.612
relative viability (NCI-H1651; first compound 4 µM): 0.568
relative viability (NCI-H1563; first compound 0.04 µM): 0.616
relative viability (NCI-H1563; first compound 0.1265 µM): 0.661
relative viability (NCI-H1563; first compound 0.4 µM): 0.702
relative viability (NCI-H1563; first compound 4 µM): 0.711
relative viability (LU99A; first compound 0.04 µM): 0.313
relative viability (LU99A; first compound 0.1265 µM): 0.382
relative viability (LU99A; first compound 0.4 µM): 0.349
relative viability (LU99A; first compound 4 µM): 0.378
relative viability (NCI-H2347; first compound 0.04 µM): 0.961
relative viability (NCI-H2347; first compound 0.1265 µM): 0.577
relative viability (NCI-H2347; first compound 0.4 µM): 0.747
relative viability (NCI-H2347; first compound 4 µM): 0.313
relative viability (NCI-H1793; first compound 0.04 µM): 0.374
relative viability (NCI-H1793; first compound 0.1265 µM): 0.297
relative viability (NCI-H1793; first compound 0.4 µM): 0.346
relative viability (NCI-H1793; first compound 4 µM): 0.335
relative viability (NCI-H1650; first compound 0.04 µM): 0.32
relative viability (NCI-H1650; first compound 0.1265 µM): 0.605
relative viability (NCI-H1650; first compound 0.4 µM): 0.651
relative viability (NCI-H1650; first compound 4 µM): 0.621
relative viability (LCLC-97TM1; first compound 0.1265 µM): 0.191
relative viability (LCLC-97TM1; first compound 0.4 µM): 0.144
relative viability (LCLC-97TM1; first compound 4 µM): 0.18
relative viability (201T; first compound 0.04 µM): 0.668
relative viability (201T; first compound 0.1265 µM): 0.65
relative viability (201T; first compound 0.4 µM): 0.652
relative viability (201T; first compound 4 µM): 0.647
relative viability (LK-2; first compound 0.1265 µM): 0.634
relative viability (LK-2; first compound 0.4 µM): 0.607
relative viability (LK-2; first compound 4 µM): 0.667
relative viability (NCI-H838; first compound 0.04 µM): 0.472
relative viability (NCI-H838; first compound 0.1265 µM): 0.402
relative viability (NCI-H838; first compound 0.4 µM): 0.451
relative viability (NCI-H838; first compound 4 µM): 0.29
relative viability (RERF-LC-KJ; first compound 0.04 µM): 0.591
relative viability (RERF-LC-KJ; first compound 0.1265 µM): 0.531
relative viability (RERF-LC-KJ; first compound 0.4 µM): 0.523
relative viability (RERF-LC-KJ; first compound 4 µM): 0.487
relative viability (PC-14; first compound 0.04 µM): 0.685
relative viability (PC-14; first compound 0.1265 µM): 0.629
relative viability (PC-14; first compound 0.4 µM): 0.687
relative viability (PC-14; first compound 4 µM): 0.588
relative viability (NCI-H727; first compound 0.04 µM): 0.291
relative viability (NCI-H727; first compound 0.1265 µM): 0.421
relative viability (NCI-H727; first compound 0.4 µM): 0.252
relative viability (NCI-H727; first compound 4 µM): 0.385
relative viability (A-427; first compound 0.04 µM): 0.581
relative viability (A-427; first compound 0.1265 µM): 0.674
relative viability (A-427; first compound 0.4 µM): 0.679
relative viability (A-427; first compound 4 µM): 0.675
relative viability (NCI-H1944; first compound 0.1265 µM): 0.328
relative viability (NCI-H1944; first compound 0.4 µM): 0.336
relative viability (NCI-H1944; first compound 4 µM): 0.33
relative viability (NCI-H460; first compound 0.04 µM): 0.258
relative viability (NCI-H460; first compound 0.1265 µM): 0.404
relative viability (NCI-H460; first compound 0.4 µM): 0.279
relative viability (NCI-H460; first compound 4 µM): 0.346

CC(C)Oc1cc(Nc2nc(N[C@@H](C)c3ccc(F)cn3)ncc2Cl)n[nH]1 [AZ23] + CS(=O)(=O)N1CCN(Cc2cc3nc(-c4cccc5[nH]ncc45)nc(N4CCOCC4)c3s2)CC1 [Pictilisib] (partner 1 µM)
relative viability (H3255; first compound 0.01 µM): 0.484
relative viability (H3255; first compound 0.03162 µM): 0.519
relative viability (H3255; first compound 0.3162 µM): 0.494
relative viability (COR-L23; first compound 0.01 µM): 0.587
relative viability (COR-L23; first compound 0.03162 µM): 0.947
relative viability (COR-L23; first compound 0.3162 µM): 0.862
relative viability (SW 1573; first compound 0.01 µM): 0.674
relative viability (SW 1573; first compound 0.03162 µM): 0.606
relative viability (SW 1573; first compound 0.3162 µM): 0.455
relative viability (NCI-H23; first compound 0.03162 µM): 0.543
relative viability (NCI-H23; first compound 0.3162 µM): 0.448
relative viability (PC-3 [JPC-3]; first compound 0.01 µM): 0.807
relative viability (PC-3 [JPC-3]; first compound 0.03162 µM): 0.833
relative viability (PC-3 [JPC-3]; first compound 0.3162 µM): 0.807
relative viability (LCLC-103H; first compound 0.01 µM): 0.571
relative viability (LCLC-103H; first compound 0.03162 µM): 0.555
relative viability (LCLC-103H; first compound 0.3162 µM): 0.533
relative viability (NCI-H650; first compound 0.01 µM): 0.841
relative viability (NCI-H650; first compound 0.03162 µM): 0.869
relative viability (NCI-H650; first compound 0.3162 µM): 1.1
relative viability (NCI-H1651; first compound 0.01 µM): 0.443
relative viability (NCI-H1651; first compound 0.03162 µM): 0.542
relative viability (NCI-H1651; first compound 0.3162 µM): 0.665
relative viability (NCI-H1563; first compound 0.01 µM): 0.682
relative viability (NCI-H1563; first compound 0.03162 µM): 0.653
relative viability (NCI-H1563; first compound 0.3162 µM): 0.674
relative viability (LU99A; first compound 0.01 µM): 0.292
relative viability (LU99A; first compound 0.03162 µM): 0.386
relative viability (LU99A; first compound 0.3162 µM): 0.294
relative viability (NCI-H2347; first compound 0.01 µM): 0.525
relative viability (NCI-H2347; first compound 0.03162 µM): 0.681
relative viability (NCI-H2347; first compound 0.3162 µM): 0.543
relative viability (NCI-H1793; first compound 0.01 µM): 0.318
relative viability (NCI-H1793; first compound 0.03162 µM): 0.369
relative viability (NCI-H1793; first compound 0.3162 µM): 0.371
relative viability (NCI-H1650; first compound 0.01 µM): 0.553
relative viability (NCI-H1650; first compound 0.03162 µM): 0.585
relative viability (NCI-H1650; first compound 0.3162 µM): 0.514
relative viability (LCLC-97TM1; first compound 0.01 µM): 0.134
relative viability (LCLC-97TM1; first compound 0.03162 µM): 0.225
relative viability (LCLC-97TM1; first compound 0.3162 µM): 0.157
relative viability (201T; first compound 0.01 µM): 0.685
relative viability (201T; first compound 0.03162 µM): 0.683
relative viability (201T; first compound 0.3162 µM): 0.69
relative viability (LK-2; first compound 0.03162 µM): 0.499
relative viability (LK-2; first compound 0.3162 µM): 0.59
relative viability (NCI-H838; first compound 0.01 µM): 0.467
relative viability (NCI-H838; first compound 0.03162 µM): 0.464
relative viability (NCI-H838; first compound 0.3162 µM): 0.51
relative viability (RERF-LC-KJ; first compound 0.01 µM): 0.546
relative viability (RERF-LC-KJ; first compound 0.03162 µM): 0.507
relative viability (RERF-LC-KJ; first compound 0.3162 µM): 0.502
relative viability (PC-14; first compound 0.01 µM): 0.757
relative viability (PC-14; first compound 0.03162 µM): 0.689
relative viability (PC-14; first compound 0.3162 µM): 0.739
relative viability (NCI-H727; first compound 0.01 µM): 0.268
relative viability (NCI-H727; first compound 0.03162 µM): 0.422
relative viability (NCI-H727; first compound 0.3162 µM): 0.329
relative viability (A-427; first compound 0.01 µM): 0.819
relative viability (A-427; first compound 0.03162 µM): 0.716
relative viability (A-427; first compound 0.3162 µM): 0.62
relative viability (NCI-H1944; first compound 0.01 µM): 0.342
relative viability (NCI-H1944; first compound 0.03162 µM): 0.353
relative viability (NCI-H1944; first compound 0.3162 µM): 0.319
relative viability (NCI-H460; first compound 0.01 µM): 0.3
relative viability (NCI-H460; first compound 0.03162 µM): 0.567
relative viability (NCI-H460; first compound 0.3162 µM): 0.348

Source: the supplement of paper PMC10307832
